This is an account of results in paper PMC9016878 (ACS Omega, 2022).

Assay [1] addresses α-glucosidase from Saccharomyces cerevisiae. Briefly: α-glucosidase inhibition. The assay is classed as biochemical. The note with it: read-out: Inhibitory activity (IC50) on α-glucosidase; mean ± SD; pNPG substrate, pH 6.8, 37 °C.
For assay [2], the target named is T1, porcine pancreatic amylase (Sus scrofa, UniProt P00690).
T1 sequence (P00690 16-511): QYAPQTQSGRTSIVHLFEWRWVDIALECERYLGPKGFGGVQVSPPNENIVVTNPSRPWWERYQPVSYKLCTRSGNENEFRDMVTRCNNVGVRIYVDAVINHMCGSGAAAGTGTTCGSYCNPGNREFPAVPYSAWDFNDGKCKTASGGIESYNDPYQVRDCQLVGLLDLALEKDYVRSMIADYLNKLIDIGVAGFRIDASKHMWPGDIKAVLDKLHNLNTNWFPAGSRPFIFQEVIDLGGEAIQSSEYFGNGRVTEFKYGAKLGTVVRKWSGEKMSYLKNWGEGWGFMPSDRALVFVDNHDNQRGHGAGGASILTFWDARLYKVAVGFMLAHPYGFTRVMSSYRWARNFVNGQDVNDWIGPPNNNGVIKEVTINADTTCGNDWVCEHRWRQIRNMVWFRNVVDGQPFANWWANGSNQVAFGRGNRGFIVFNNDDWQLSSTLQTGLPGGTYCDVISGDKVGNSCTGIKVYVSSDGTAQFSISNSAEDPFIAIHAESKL
The assay is described as follows: biochemical.

In assay [3] the target is T2, lipase from porcine pancreas (Sus scrofa, UniProt P00591).
T2 sequence (P00591 1-450): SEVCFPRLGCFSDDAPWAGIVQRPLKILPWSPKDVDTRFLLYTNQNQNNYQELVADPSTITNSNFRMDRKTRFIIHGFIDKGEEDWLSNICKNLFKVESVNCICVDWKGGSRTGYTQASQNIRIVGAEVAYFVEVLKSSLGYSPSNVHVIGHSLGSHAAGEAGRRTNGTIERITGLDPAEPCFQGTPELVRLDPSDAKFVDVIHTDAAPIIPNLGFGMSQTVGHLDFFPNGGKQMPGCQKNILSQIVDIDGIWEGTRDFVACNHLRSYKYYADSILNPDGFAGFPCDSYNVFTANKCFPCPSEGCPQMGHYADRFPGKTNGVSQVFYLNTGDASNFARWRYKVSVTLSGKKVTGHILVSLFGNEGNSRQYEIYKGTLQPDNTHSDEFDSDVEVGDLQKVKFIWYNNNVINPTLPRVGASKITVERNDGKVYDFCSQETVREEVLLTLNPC
Briefly: pancreatic lipase inhibition. It is filed as biochemical.

Regarding `C[C@@H]1CC[C@]2(C(=O)O)CC[C@]3(C)C(=CC[C@@H]4[C@@]5(C)[C@H](O)C(=O)[C@H](O)C(C)(C)[C@@H]5CC[C@]43C)[C@@H]2[C@]1(C)O` [compound 7, 1-hydroxy-2-oxopomolic acid], the concentration for half-maximal inhibition (IC50) – broadly, the point on the concentration scale where inhibition reaches its midpoint – in assay [1] is 192 ± 13.8 µM.
As for `C[C@@H]1CC[C@]2(C(=O)O)CC[C@]3(C)C(=CC[C@@H]4[C@@]5(C)CC[C@H](O)C(C)(C)[C@@H]5CC[C@]43C)[C@@H]2[C@]1(C)O` [compound 13, pomolic acid], the values for the half-inhibitory concentration (IC50) in assay [2], in assay [1] and in assay [3] were 142 ± 6.15 µM, 85.5 ± 6.87 µM and 458 ± 72.8 µM, respectively.
With `CC[C@H](CC[C@@H](C)[C@H]1CC[C@H]2[C@@H]3CC=C4C[C@@H](O[C@@H]5O[C@H](CO)[C@@H](O)[C@H](O)[C@H]5O)CC[C@]4(C)[C@H]3CC[C@]12C)C(C)C` [compound 14, β-sitosterol glucoside], the IC50 in assay [2] was determined as 113 ± 3.51 µM.
